Results on 1 compound are retold here after ChEMBL document CHEMBL4507292 (2021).

Assay [1] has as its target Mitogen-activated protein kinase 3 (Homo sapiens) (UniProt P27361). The assay is described as follows: Inhibition of Protein Serine/Threonine Kinase, MAPK3 (ERK1) at 10 µM in the Eurofins-Panlabs enzyme assay (Eurofins_assay_171000). The settings on record: Compound concentration […].
The species entered for assay [2] is Rattus norvegicus. Description: Inhibition of Glycine, Strychnine-Sensitive at 10 µM in the Eurofins-Panlabs radioligand binding assay (Eurofins_assay_239000). The settings on record: Compound concentration 10.0 uM.
For assay [3], the target named is Endothelin-converting enzyme 1 (Homo sapiens) (UniProt P42892). The assay is described as follows: Peptidase, Endothelin Converting Enzyme-1 (ECE-1) Eurofins-Panlabs enzyme assay. Particulars: Compound concentration 10.0 uM.
Endothelin-converting enzyme 1 (Homo sapiens), sequence (P42892 whole entry): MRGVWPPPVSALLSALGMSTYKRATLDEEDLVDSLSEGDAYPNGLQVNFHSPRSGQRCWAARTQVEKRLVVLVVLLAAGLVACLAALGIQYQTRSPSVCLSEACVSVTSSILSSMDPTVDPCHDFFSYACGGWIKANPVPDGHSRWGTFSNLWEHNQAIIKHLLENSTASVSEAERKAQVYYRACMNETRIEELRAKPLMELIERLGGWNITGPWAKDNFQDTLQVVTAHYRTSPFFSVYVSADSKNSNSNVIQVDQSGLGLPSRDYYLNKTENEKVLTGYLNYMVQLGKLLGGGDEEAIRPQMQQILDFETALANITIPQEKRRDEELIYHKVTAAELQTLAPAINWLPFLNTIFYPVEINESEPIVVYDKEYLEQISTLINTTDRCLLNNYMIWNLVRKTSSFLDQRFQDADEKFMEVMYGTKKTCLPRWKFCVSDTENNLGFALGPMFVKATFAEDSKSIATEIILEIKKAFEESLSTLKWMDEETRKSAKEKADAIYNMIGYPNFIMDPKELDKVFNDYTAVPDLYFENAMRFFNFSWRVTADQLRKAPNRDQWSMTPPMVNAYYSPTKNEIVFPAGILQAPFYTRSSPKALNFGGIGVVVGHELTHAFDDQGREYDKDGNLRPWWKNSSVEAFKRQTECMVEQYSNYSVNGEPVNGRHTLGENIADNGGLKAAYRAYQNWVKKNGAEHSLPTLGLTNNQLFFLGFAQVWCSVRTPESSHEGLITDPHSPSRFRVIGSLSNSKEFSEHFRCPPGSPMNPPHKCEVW
Assay [4] has as its target Vascular endothelial growth factor receptor 1 (Homo sapiens) (UniProt P17948). Description: Protein Tyrosine Kinase, FLT1 (VEGFR-1) Eurofins-Panlabs enzyme assay. The settings on record: Compound concentration 10.0 uM.
For assay [5], the species on record is Rattus norvegicus. The assay is described as follows: Adrenergic α1, Non-selective Eurofins-Panlabs radioligand binding assay. The settings on record: Compound concentration 10.0 uM. The assay is classed as protein assay.
In assay [6] the target is Sodium-dependent serotonin transporter (Homo sapiens, UniProt P31645). The assay is described as follows: Transporter, Serotonin (5- Hydroxytryptamine) (SERT) Eurofins-Panlabs radioligand binding assay. Also noted: ligand concentration 0.15 nM, non-specific ligand with concentration 10 µM Imipramine, incubation time 3 h, incubation temperature 4 °C.

Mitogen-activated protein kinase 3 (Homo sapiens), sequence (P27361 whole entry): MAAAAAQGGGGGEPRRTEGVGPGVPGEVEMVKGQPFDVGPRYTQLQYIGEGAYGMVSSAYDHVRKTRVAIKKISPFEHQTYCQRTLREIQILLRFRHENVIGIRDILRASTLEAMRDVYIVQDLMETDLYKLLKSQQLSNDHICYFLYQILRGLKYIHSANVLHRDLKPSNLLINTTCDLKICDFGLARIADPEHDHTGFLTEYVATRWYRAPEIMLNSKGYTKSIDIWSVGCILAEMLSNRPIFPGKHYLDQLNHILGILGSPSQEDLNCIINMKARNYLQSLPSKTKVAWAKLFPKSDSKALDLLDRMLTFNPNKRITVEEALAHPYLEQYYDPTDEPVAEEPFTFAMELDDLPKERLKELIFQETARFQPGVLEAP
Vascular endothelial growth factor receptor 1 (Homo sapiens), sequence (P17948 whole entry): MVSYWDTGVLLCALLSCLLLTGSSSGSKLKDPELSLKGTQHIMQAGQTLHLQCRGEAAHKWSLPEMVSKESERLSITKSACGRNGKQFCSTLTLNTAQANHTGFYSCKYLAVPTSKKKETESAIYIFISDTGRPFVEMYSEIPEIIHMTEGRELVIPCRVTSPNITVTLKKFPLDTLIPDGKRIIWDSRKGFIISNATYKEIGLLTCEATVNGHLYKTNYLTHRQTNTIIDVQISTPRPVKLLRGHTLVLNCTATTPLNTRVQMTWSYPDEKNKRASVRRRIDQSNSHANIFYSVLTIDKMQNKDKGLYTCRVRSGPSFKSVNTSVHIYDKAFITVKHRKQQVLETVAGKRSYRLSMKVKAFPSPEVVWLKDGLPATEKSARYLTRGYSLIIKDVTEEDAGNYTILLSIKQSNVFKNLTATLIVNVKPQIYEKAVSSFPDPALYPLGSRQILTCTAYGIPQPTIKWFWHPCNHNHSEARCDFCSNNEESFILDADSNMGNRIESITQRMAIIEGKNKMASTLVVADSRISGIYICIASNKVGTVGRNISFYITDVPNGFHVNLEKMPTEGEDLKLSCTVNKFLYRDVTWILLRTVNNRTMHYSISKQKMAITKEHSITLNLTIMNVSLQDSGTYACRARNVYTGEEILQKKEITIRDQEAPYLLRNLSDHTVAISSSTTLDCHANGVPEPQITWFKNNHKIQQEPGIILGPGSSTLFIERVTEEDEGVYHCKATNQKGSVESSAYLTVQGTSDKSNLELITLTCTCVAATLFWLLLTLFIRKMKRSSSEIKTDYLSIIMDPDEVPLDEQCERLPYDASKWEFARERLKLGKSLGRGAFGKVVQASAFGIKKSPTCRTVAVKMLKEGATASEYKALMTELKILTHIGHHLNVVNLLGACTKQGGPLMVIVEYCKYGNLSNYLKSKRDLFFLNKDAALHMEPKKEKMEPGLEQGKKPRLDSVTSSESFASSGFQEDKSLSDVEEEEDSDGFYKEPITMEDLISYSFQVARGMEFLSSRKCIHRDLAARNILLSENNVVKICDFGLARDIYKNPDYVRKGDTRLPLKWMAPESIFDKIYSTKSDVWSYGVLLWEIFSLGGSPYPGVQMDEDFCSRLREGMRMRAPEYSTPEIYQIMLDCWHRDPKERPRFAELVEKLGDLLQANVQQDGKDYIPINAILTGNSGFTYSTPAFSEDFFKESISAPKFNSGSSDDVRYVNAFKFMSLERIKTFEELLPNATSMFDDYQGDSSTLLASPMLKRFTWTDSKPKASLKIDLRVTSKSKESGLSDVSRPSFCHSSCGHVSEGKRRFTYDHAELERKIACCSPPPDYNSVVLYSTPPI

For the compound `O=C(O)c1cc(-c2ccc(C3CCNCC3)cc2)c2ccc(-c3ccc(C(F)(F)F)cc3)cc2c1` [PPTN], the inhibition is -5% in assay [1]; -3% in assay [2]; 12% in assay [3]; -2% in assay [4]; -4% in assay [5]; -7% in assay [6] (Compound concentration 0.01 uM). For the same compound, the inhibition was -9% in assay [6] (Compound concentration 0.1 uM), -6% in assay [6] (Compound concentration 1.0 uM) and 58% in assay [6] (Compound concentration 10.0 uM). Further, the IC50 in assay [6] turned out to be 9.47 µM. Besides, the inhibition constant (Ki) in assay [6] stood at 5.03 µM.

The term inhibition denotes the drop in the measured response relative to a control, in per cent. As usually defined, the IC50 is the midpoint of a concentration-inhibition curve. Low readings indicate greater potency in that assay, high ones weaker potency in that assay. One may read the Ki as a measure of affinity in units of concentration, obtained from inhibition or displacement.
